From US20120270237A9, “METHODS FOR THE IDENTIFICATION OF KINASE INTERACTING MOLECULES AND FOR THE PURIFICATION OF KINASE PROTEINS” (Cellzone AG, priority 2009, published 2012)

How the values were obtained:
PITSLRE = experiment: Kinobeads competition binding, HL60 cell lysate; parameters: species or system human; conditions: 10 μM free compound
Description: To one aliquot of cell lysate 10 μM of the free compound (FIG. 3, CZC31326) was added and allowed to bind to proteins in the lysate. Then the affinity matrix with the immobilized compound (Example 1) was added to capture proteins that were not interacting with the previously added free compound. Beads were separated from the lysate and bead bound proteins were eluted in SDS sample buffer and subsequently separated by SDS-Polyacrylamide gel electrophoresis (FIG. 4). Suitable gel bands were cut out and subjected to in-gel proteolytic digestion with trypsin. The second lysate aliquot was processed identically, however no free compound was added (DMSO solvent control). Peptides originating from samples 1 and 2 were labeled with iTRAQ reagents (iTRAQ 114 and iTRAQ 117) and the combined samples were analyzed with a nano-flow liquid chromatography system coupled online to a tandem mass spectrometer (LC-MS/MS) experiment followed by iTRAQ reporter ion quantification in the MS/MS spectra (Ross et al., 2004. Mol. Cell. Proteomics 3(12):1154-1169). […] The iTRAQ reagents are a set of multiplexed, amine-specific, stable isotope reagents that can label peptides on amino groups in up to four different biological samples enabling simultaneous identification and quantitation of peptides. […]

BIKE = BIKE (Homo sapiens, UniProt Q9NSY1); experiment: Kinobeads competition binding, HL60 cell lysate; parameters: endogenous in cells; host or cells: HL60 cells; conditions: 10 μM free compound
Sequence of BIKE (Q9NSY1 whole entry): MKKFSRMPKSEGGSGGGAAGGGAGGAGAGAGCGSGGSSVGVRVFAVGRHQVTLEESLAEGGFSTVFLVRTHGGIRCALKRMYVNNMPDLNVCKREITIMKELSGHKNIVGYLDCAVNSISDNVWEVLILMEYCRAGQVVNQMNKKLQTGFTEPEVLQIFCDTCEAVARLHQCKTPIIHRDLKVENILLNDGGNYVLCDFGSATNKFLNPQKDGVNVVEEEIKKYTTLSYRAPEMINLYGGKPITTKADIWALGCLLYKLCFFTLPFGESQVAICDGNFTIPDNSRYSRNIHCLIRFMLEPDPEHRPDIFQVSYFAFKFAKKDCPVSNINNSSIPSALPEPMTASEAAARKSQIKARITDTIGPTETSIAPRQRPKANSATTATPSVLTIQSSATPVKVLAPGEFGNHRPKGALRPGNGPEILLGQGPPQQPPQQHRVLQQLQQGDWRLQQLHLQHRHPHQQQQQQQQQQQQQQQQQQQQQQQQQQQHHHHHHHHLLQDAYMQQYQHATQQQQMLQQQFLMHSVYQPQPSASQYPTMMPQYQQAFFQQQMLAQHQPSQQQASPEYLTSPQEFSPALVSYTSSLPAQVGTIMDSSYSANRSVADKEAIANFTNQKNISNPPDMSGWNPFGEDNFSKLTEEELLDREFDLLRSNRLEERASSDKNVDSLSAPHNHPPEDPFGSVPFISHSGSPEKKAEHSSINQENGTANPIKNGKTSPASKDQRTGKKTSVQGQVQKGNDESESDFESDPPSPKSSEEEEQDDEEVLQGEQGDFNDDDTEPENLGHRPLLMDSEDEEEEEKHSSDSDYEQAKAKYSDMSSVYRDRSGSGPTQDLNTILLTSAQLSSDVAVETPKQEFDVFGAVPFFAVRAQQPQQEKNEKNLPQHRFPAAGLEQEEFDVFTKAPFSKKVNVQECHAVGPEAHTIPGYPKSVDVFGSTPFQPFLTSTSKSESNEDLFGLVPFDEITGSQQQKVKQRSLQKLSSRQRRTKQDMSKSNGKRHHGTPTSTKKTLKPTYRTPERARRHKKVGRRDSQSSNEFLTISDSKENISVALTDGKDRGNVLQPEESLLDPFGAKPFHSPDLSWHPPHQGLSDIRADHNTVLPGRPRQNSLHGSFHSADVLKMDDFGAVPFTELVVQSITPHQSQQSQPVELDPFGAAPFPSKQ
Description: (§1) To one aliquot of cell lysate 10 μM of the free compound (FIG. 3, CZC31326) was added and allowed to bind to proteins in the lysate. Then the affinity matrix with the immobilized compound (Example 1) was added to capture proteins that were not interacting with the previously added free compound. Beads were separated from the lysate and bead bound proteins were eluted in SDS sample buffer and subsequently separated by SDS-Polyacrylamide gel electrophoresis (FIG. 4). Suitable gel bands were cut out and subjected to in-gel proteolytic digestion with trypsin. The second lysate aliquot was processed identically, however no free compound was added (DMSO solvent control). Peptides originating from samples 1 and 2 were labeled with iTRAQ reagents (iTRAQ 114 and iTRAQ 117) and the combined samples were analyzed with a nano-flow liquid chromatography system coupled online to a tandem mass spectrometer (LC-MS/MS) experiment followed by iTRAQ reporter ion quantification in the MS/MS spectra (Ross et al., 2004. Mol. Cell. Proteomics 3(12):1154-1169). Further experimental protocols can be found in WO2006/134056 and a previous publication (Bantscheff et al., 2007. Nature Biotechnology 25, 1035-1044). Sepharose-beads with the immobilized compound (100 μl beads per pull-down experiment) were equilibrated in lysis buffer and incubated with a cell lysate sample containing 50 mg of protein on an end-over-end shaker (Roto Shake Genie, Scientific Industries Inc.) for 2 hours at 4° C. Beads were collected, transferred to Mobicol-columns (MoBiTech 10055) and washed with 10 ml lysis buffer containing 0.4% NP40 detergent, followed by 5 ml lysis buffer containing 0.2% detergent. To elute bound proteins, 60 μl 2×SDS sample buffer was added to the column. The column was incubated for 30 minutes at 50° C. and the eluate was transferred to a siliconized microfuge tube by centrifugation. Proteins were then alkylated with 108 mM iodoacetamid. Proteins were then separated by SDS-Polyacrylamide electrophoresis (SDS-PAGE). The peptide extracts of samples treated with 10 μM of free compound (CZC31326) and the solvent control (0.5% DMSO) were treated with different variants of the isobaric tagging reagent (iTRAQ Reagents Multiplex Kit, part number 4352135, Applied Biosystems, Foster City, Calif., USA). The iTRAQ reagents are a set of multiplexed, amine-specific, stable isotope reagents that can label peptides on amino groups in up to four different biological samples enabling simultaneous identification and quantitation of peptides. The iTRAQ reagents were used according to instructions provided by the manufacturer. The samples were resuspended in 10 μl 50 mM TEAB solution, pH 8.5 and 10 μl ethanol were added. The iTRAQ reagent was dissolved in 120 μl ethanol and 10 μl of reagent solution were added to the sample. The labeling reaction was performed at room temperature for one hour on a horizontal shaker and stopped by adding 5 μl of 100 mM TEAB and 100 mM glycine in water. The two labeled sampled were then combined, dried in a vacuum centrifuge and resuspended in 10 μl of 0.1% formic acid in water. Relative protein quantitation was performed using peak areas of iTRAQ reporter ion signals essentially as described in an earlier publication (Bantscheff et al., 2007. Nature Biotechnology 25, 1035-1044).

CaMK2g = CaMK2g (Homo sapiens, UniProt Q13555); experiment: Kinobeads competition binding, HL60 cell lysate; parameters: endogenous in cells; host or cells: HL60 cells; conditions: 10 μM free compound
Sequence of CaMK2g (Q13555 whole entry): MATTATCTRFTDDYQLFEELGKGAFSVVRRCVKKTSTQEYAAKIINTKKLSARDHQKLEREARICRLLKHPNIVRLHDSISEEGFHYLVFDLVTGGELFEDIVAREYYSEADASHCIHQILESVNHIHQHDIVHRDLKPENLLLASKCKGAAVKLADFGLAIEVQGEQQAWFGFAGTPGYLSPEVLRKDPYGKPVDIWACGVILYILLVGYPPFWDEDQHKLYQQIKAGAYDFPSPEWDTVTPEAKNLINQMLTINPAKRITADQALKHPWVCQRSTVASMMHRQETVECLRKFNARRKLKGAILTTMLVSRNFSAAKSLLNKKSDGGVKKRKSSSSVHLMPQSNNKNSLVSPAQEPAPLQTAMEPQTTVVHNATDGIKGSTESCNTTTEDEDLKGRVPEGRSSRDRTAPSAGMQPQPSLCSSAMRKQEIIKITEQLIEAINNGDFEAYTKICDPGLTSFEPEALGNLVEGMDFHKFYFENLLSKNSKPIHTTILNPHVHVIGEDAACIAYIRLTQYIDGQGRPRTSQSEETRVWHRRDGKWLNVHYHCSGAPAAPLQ
Description: as §1

PLK4 = PLK4 (Homo sapiens, UniProt O00444); experiment: Kinobeads competition binding, L-363 cell lysate; parameters: endogenous in cells; host or cells: L-363 cells (treated with MG132 before harvest); conditions: 10 μM free compound, L-363 lysate
Sequence of PLK4 (O00444 whole entry): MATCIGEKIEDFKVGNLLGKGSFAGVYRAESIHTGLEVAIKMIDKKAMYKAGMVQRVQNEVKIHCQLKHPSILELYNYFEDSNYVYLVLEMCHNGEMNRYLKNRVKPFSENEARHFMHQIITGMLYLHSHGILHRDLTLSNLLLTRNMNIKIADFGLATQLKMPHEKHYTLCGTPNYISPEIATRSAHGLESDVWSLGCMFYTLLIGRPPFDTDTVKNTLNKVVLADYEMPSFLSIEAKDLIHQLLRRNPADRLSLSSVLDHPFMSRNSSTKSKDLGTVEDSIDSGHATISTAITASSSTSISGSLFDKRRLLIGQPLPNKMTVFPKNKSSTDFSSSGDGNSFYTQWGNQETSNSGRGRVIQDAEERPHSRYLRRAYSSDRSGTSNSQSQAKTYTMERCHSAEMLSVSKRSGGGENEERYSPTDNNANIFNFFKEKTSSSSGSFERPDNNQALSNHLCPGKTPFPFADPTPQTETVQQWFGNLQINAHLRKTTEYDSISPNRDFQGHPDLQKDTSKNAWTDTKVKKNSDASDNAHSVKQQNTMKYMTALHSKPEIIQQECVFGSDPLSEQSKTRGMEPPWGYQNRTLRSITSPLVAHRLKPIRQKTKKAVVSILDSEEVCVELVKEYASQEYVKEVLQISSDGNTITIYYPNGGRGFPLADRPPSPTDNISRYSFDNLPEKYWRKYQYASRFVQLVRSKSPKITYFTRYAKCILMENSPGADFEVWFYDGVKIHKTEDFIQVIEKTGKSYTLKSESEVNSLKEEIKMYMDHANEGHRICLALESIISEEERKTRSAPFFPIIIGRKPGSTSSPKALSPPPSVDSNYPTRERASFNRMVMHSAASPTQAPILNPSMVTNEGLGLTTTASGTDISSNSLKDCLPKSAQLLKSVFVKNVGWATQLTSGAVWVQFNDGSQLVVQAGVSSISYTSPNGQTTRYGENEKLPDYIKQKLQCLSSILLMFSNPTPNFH
Description: (§2) To one aliquot of cell lysate 10 μM of the free compound (FIG. 3, CZC31326) was added and allowed to bind to proteins in the lysate. Then the affinity matrix with the immobilized compound was added to capture proteins that were not interacting with the previously added free compound. Beads were separated from the lysate and bead bound proteins were eluted in SDS sample buffer and subsequently separated by SDS-Polyacrylamide gel electrophoresis (FIG. 8). Suitable gel bands were cut out and subjected to in-gel proteolytic digestion with trypsin. The second lysate aliquot was processed identically, however no free compound was added (DMSO solvent control). Peptides originating from samples 1 and 2 were labeled with iTRAQ reagents (iTRAQ 114 and iTRAQ 117) and the combined samples were analyzed with a nano-flow liquid chromatography system coupled online to a tandem mass spectrometer (LC-MS/MS) experiment followed by iTRAQ reporter ion quantification in the MS/MS spectra as described in Example 2.
(§3) For this experiment the human plasma cell leukaemia line L-363 was used (German Collection of Microorganisms and Cell Cultures, DSMZ number ACC49, Braunschweig, Germany). Cells were treated for three hours with 20 μM of the proteasome inhibitor MG132 (Z-Leu-Leu-Leu-al, Sigma C2211) prior to cell harvesting.

STK33 = STK33 (Homo sapiens, UniProt Q9BYT3); experiment: Kinobeads competition binding, L-363 cell lysate; parameters: endogenous in cells; host or cells: L-363 cells (treated with MG132 before harvest); conditions: 10 μM free compound, L-363 lysate
Sequence of STK33 (Q9BYT3 whole entry): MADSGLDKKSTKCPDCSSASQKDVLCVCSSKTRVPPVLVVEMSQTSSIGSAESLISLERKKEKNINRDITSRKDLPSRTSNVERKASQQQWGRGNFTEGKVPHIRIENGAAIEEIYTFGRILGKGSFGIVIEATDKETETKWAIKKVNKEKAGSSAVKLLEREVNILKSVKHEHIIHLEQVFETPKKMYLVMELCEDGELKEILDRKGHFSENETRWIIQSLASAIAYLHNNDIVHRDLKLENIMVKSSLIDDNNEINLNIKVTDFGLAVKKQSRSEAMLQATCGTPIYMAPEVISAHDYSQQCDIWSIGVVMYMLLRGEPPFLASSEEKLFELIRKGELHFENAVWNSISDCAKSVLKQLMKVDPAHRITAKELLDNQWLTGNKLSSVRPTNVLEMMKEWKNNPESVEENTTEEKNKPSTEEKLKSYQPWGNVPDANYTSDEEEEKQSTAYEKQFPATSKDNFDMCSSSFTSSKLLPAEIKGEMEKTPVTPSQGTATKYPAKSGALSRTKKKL
Description: as §2, §3

inhibition at 10 µM (BIKE): 97.6%
inhibition at 10 µM (CaMK2g): 90.4%
inhibition at 10 µM (PLK4): 91.2%
inhibition at 10 µM (STK33): 95.7%
SMILES: CS(=O)(=O)Nc1ccccc1Nc1nc(Nc2cccc(OCCN)c2)ncc1Cl [CZC31326, N-(2-(2-(3-(2-aminoethoxy)phenylamino)-5-chloropyrimidin-4-ylamino)phenyl)methanesulfonamide]
Competition % (PITSLRE): 94.8%
